In assay [1] the test system is NIH-3T3 cells. Description: Western blot of NIH-3T3 cells (collagen I, GCN2, ATF4, PC). Conditions: for rescue of TGFβ-induced collagen I depletion: metabolite; for GCN2 activation: cell-permeable metabolite. Type of assay: cell-based, mouse. The source says: PSCs were isolated from C57BL/6 mice by differential centrifugation as previously described^49 and their mesenchymal origin was validated by analyzing the expression of various mesenchymal and epithelial markers. MFBs were isolated from FVB/N mice by differential centrifugation as previously described^50. DB7 mouse breast cancer cells were obtained from Alexander Borowsky (University of California Davis Comprehensive Cancer Center, Sacramento, CA, USA) through an MTA to Ohio State University (OSU). KPC (Kras^LSL-G12D; Trp53^LSL-R172H; Pdx1-Cre) mouse PDAC cells were a gift from Scott Lowe (Memorial Sloan Kettering Cancer Center. (MSKCC)). All cells were cultured at 37° C. in 5% carbon dioxide (CO2) and 20% oxygen (O2) and were maintained in Dulbecco's Modified Eagles medium (DMEM) (25 mM D-glucose, 2 mM L-glutamine) supplemented with 10% fetal bovine serum (FBS) (Gemini), 100 units/ml penicillin and 100 μg/ml streptomycin. Primary PSC and MFB cells were kept in culture for no more than ten passages. Experiments with iCAFs and myCAFs were performed as previously described^29. In brief, qPSCs were generated by culturing PSCs in a dome of GFR Matrigel (Corning) in DMEM; iCAFs were generated by culturing PSCs in a dome of GFR Matrigel in DMEM conditioned by KPC cells for 48 h; myCAFs were generated by monolayer culture of PSCs. Differentiation was validated by analyzing the expression of iCAF/myCAF markers^29. For experiments with different glutamine concentrations, cells were seeded in regular DMEM and the medium was changed 5-6 hours later or the following day to glucose and glutamine-free DMEM supplemented with 10% dialyzed FBS (Gemini) and 20 mM D-glucose, 2 mM L-glutamine (100%), 0.4 mM L-glutamine (20%) or 0.2 mM L-glutamine (10%). All media were prepared by the Media Preparation Facility at MSKCC. Cells were verified as mycoplasma-free by the MycoAlert Mycoplasma Detection Kit (Lonza).
Lysates were generated by incubating cells or ground tumors in RIPA buffer (Millipore); […] of cleared lysate were analyzed by SDS-polyacrylamide gel electrophoresis (SDS-PAGE) as previously described^11. […] The following secondary antibodies were used: anti-rabbit horseradish peroxidase (HRP) (1:5,000; GE, NA934V), anti-mouse HRP (1:5,000; GE, NA931). Quantification of band intensities of collagen I relative to […] or vinculin in tumor allograft experiments was performed with Image Lab software v6.0 (Bio-Rad).

The test system of assay [2] is NIH-3T3 cells. The assay is described as follows: Relative metabolite abundance (GC-MS), NIH-3T3 cells. Type of assay: cell-based, mouse. Conditions: for TGFβ-induced depletion of TCA cycle intermediates and NEAAs: 10% Gln, metabolite 5 mM, 48 hours (FIG. 8I). On the procedure:
Cells were plated in six-well cell culture plates at a concentration aimed to reach 0.5-1×10^6 cells at the time of harvest. For quantification of relative metabolite abundance, cells were cultured with glutamine-free DMEM containing different concentrations of L-glutamine and supplemented with 10% dialyzed FBS and in some experiments were treated with TGFβ for 48 hours. For the [U-^13C]and [3,4-^13C]glucose tracing experiments, cells were cultured as above, and in the last 8 hours media was replaced with DMEM without D-glucose and L-glutamine supplemented with 2 mM or 0.2 mM L-glutamine and 10 mM [U-^13C]or [3,4-^13C]D-glucose (Cambridge Isotope Laboratories) and 10% dialyzed FBS. […] For relative quantification of metabolites by gas chromatography-mass spectroscopy (GC-MS), cells were washed briefly with PBS, which was then fully aspirated and metabolism was quenched by immediately adding 1 mL of 80:20 methanol:water stored at −80° C. containing 20 μM deuterated 2-hydroxyglutarate (d5-2HG) as an internal standard. […]
GC-MS measurements were performed as described before^11. Ions used for quantification of metabolite levels were as follows: d5-2HG m/z 354; citrate m/z 465; alpha-ketoglutarate m/z 304; succinate m/z 247; fumarate m/z 245; malate m/z 335; aspartate m/z 232; hydroxyproline m/z 332; proline m/z 216; glutamate m/z 246; glutamine m/z 245; lactate m/z 219; pyruvate m/z 174. […] For relative quantification of cell samples, integrated peak areas were normalized to the internal standard d5-2HG and to the packed cell volume of each sample. Absolute quantification of hydroxyproline in tumor acid hydrolysates was performed against a standard curve of commercial trans-4-hydroxy-L-proline (Sigma). […]

Where [3] appears, read: PC-deleted cells, low Gln, 48 hours (FIG. 4B; MFBs FIG. 11E).
The mark [4] stands for this setting: low Gln (10%), TGFβ, 48 hours (FIG. 1E).

Entries after “also recorded” stand apart in the source; their conditions may differ.

The text below walks through data of patent US20260152533A1, “COMBINATION INHIBITORS FOR TREATING FIBROSIS” (Memorial Sloan-Kettering Cancer Center, priority 2021, published 2026).

In the case of `COC(=O)CC[C@H](N)C(=O)OC` [dm-Glu, L-glutamic acid dimethylester], the “rescue of TGFβ-induced collagen I depletion” value with NIH-3T3 cells [1] (10% Gln, TGFβ, 48 hours) is on record as “sufficient to restore”. Further, in the assay on NIH-3T3 cells [1] (setting [3]), the “collagen I levels” value was “increased”. Besides, the GCN2 activation entry in the assay on NIH-3T3 cells [1] (low Gln (10%), TGFβ, 48 hours) is on record as “prevented”. In addition, the “TGFβ-induced depletion of TCA cycle intermediates and NEAAs” value with NIH-3T3 cells [2] was “rescued”.
For the compound `COC(=O)CCC(=O)C(=O)OC` [dm-αKG, dimethyl alpha-ketoglutarate], the “rescue of TGFβ-induced collagen I depletion” value in the assay with NIH-3T3 cells [1] (10% Gln, TGFβ, 48 hours) is on record as “able to rescue”. Moreover, in the assay on NIH-3T3 cells [1] (setting [3]), the “collagen I levels” value is listed as “increased”. Also, in the assay with NIH-3T3 cells [1] (low Gln (10%), TGFβ, 48 hours), the GCN2 activation result is “prevented; also recorded: suppressed”. Besides, the “TGFβ-induced depletion of TCA cycle intermediates and NEAAs” value with NIH-3T3 cells [2] is “rescued”.
As for “TGFβ: transforming growth-factor beta; TGFβ-1 purchased from Peprotech”, the “collagen I production” value with NIH-3T3 cells [1] (10% Gln, TGFβ) was “ceased to proliferate and produce collagen I”. Further, the “collagen I levels” value with NIH-3T3 cells [1] (20% Gln, TGFβ, 48 hours (FIG. 1B)) is “no longer able to increase”. Moreover, the “repressive phosphorylation of the E1α subunit of the pyruvate dehydrogenase (PDH) complex” value in the assay on NIH-3T3 cells [1] (100% Gln, TGFβ 48 hours (FIG. 3B)) is “reduced”. Besides, in the assay with NIH-3T3 cells [1] (100% and 50% Gln, TGFβ, 48 hours), the “collagen I levels in growing cells” value is recorded as “upregulated”. In addition, in the assay with NIH-3T3 cells [1] (all fibroblast types analysed, TGFβ 48 hours), the PC protein levels result is recorded as “reduced”. Further, in the assay on NIH-3T3 cells [1] (setting [4]), the ATF4 result is given as “upregulated” and the GCN2 phosphorylation result is recorded as “displayed phosphorylation”. Also, the “free levels of most TCA cycle intermediates” value with NIH-3T3 cells [2] (low Gln (10%), TGFβ, 48 hours (FIG. 1H)) was “substantially reduced”.
